Data from patent US5873359A, “Methods and devices for treating pulmonary vasoconstriction and asthma” (The General Hospital Corporation, priority 1994, dated 1999).

Key:
[1] = tested on: U46619-induced pulmonary vasoconstriction; assay: Inhaled NO in lambs with U46619-induced pulmonary vasoconstriction; assay type: in vivo, Suffolk lambs
Text: Eight Suffolk lambs weighing 25-35 kg underwent a sterile thoracotomy in order to place a left atrial line, tracheostomy and femoral artery line under general endotracheal anesthesia with halothane/oxygen three days before study. After three days of recovery the lambs underwent sterile placement of a 7 French thermal dilution pulmonary artery monitoring catheter under local anesthesia.
Awake unanesthetized lambs were studied in order to avoid general anesthesia which can blunt hypoxic vasoconstriction. Lambs were placed in a Babraham cage and allowed to drink and eat ad lib. Two studies were performed 2 days apart on each of six lambs. After the study the lambs were sacrificed with an overdose of barbiturate and heir lungs were fixed, stained and examined by light microscopy for pathological changes.
On the first study day lambs breathing 60-70% oxygen were given an infusion of a potent pulmonary vasoconstrictor, the stable endoperoxide analog (5Z, 9α, 13E, 15S)-11,9-(Epoxymethano)prosta-5,13-dien-1-oic acid (U46619, The Upjohn Company, Kalamazoo, Mich.) of thromboxane at a rate of 0.4-0.8 μg/kg/min. The tracheostomy was connected to a non-rebreathing circuit consisting of a 5 liter reservoir bag and one way valves to isolate inspired from expired gas. Expired gas was scavenged and discarded. The inspired gas was a precise mixture of oxygen and nitrogen immediately diluted with NO to produce the correct inspired concentration. Using volumetrically calibrated flowmeters, varying quantities of NO were mixed with N2 to obtain the desired inspired NO concentration at an inspired oxygen concentration (Fi O2) of 0.6-0.7. The reservoir bag was emptied after each level of NO inhalation. The residence half time of NO in the gas reservoir was 15 seconds or less to minimize conversion to NO2. NO was obtained from Air Products and Chemicals, Inc., Allentown, Pa. as a mixture of 235 ppm NO in pure N2. […] Fontijin, Anal. Chem. 27:1903 (1981).
Each level of NO exposure was followed by six minutes of breathing the oxygen mixture without NO (FIG. 2). A second exposure to NO was examined for similar periods. Subsequently, a control period breathing the oxygen mixture was studied six minutes after ceasing U46619 infusion. At each three and six minute time period after administering or discontinuing NO during the study, we measured mean and phasic pulmonary artery pressure (PAP), left atrial pressure (LAP), systemic arterial pressure (SAP) and central venous pressure (CVP). All pressures were recorded on a Hewlett Packard multi-channel strip chart recorder with transducers zeroed to atmospheric pressure at the mid point of the thorax (e.g., see FIG. 3). Cardiac output (CO) was measured by thermal dilution as the average of two determinations injecting 5 ml of 0° C. Ringers lactate. Pulmonary vascular resistance (PVR) and systemic vascular resistance (SVR) were computed by standard formulae; PVR measured at each inhaled NO concentration is shown in FIG. 4. Appropriate statistical analyses were performed, and all data were expressed as mean ± standard error.

[2] = tested on: methacholine bronchoconstriction; assay: Dose-response of intermittent NO inhalation during methacholine infusion; assay type: in vivo, Hartley strain guinea pigs
Method: Male Hartley strain guinea pigs (300-440g body wt) were anesthetized with α-chloralose (50 mg/kg) and urethane (500 mg/kg) (Drazen et al., J. Appl. Physiol. 48:613-618, 1980). A tracheostomy was performed, and the animals were intubated with a tubing adaptor (ID 1.65 mm) and ventilated with a small animal ventilator (Harvard Apparatus, a division of Ealing Scientific, Natick, Mass.) at 8 ml/kg and 60 breaths/min. A jugular vein was cannulated for intravenous administration of drugs. The chest was opened by bilateral excision of a portion of the ribs anteriorly so that the lungs were exposed to atmospheric pressure (Shore and Drazen, J. Appl. Physiol. 67:2504-2511, 1989). A positive end expiratory pressure of 3-4 cmH2 O was provided.
Guinea pigs were then placed inside a plethysmograph (Amdur and Mead, Am. J. Physiol. 192:363-368, 1958), that was connected to a large reservoir containing copper mesh to maintain the plethysmograph isothermal. Plethysmograph pressure was measured with a differential pressure transducer (Celesco, Canoga Park, Calif.); the opposite side of this transducer was connected to a similar reservoir. Pressure at the airway opening was measured from a side tap in the tracheal canula. Transpulmonary pressure was measured with a differential pressure transducer (Celesco) as the difference between airway opening pressure and the pressure inside the plethysmograph. Flow was obtained by electrical differentiation of the volume (plethysmograph pressure) signal. Tidal volume was measured by recording the pressure changes in the body plethysmograph. Volume, flow, and transpulmonary pressure signals were recorded on a strip chart (General Scanning, Watertown, Mass.). Pulmonary resistance and dynamic compliance were calculated by a computer program according to the method of von Neergard and Wirz (Z. Klin. Med. 105:35-50, 1927; Z. Klin. Med. 105:52-82, 1927).
The apparatus and conditions used are diagrammed in FIG. 7. The inspired gas was a precise mixture of nitrogen and oxygen blended via a Y piece tube and immediately diluted with nitric oxide (NO) to produce the correct inspired concentration in a 5 liter gas mixture bag. With volumetrically calibrated flowmeters, varying quantities of NO mixed with N2 were substituted for pure N2 to obtain the desired No concentration at an inspired oxygen concentration (FIO2) of 0.30-0.32. The total inflow gas rate was maintained at 2.5 l/min. The gas mixture was then sent via a 3 cm ID tube filled with 90 ml of soda lime to scavenge nitrogen dioxide (Stavert and Lehnert, Inhal. Toxicol. 2:53-67, 1990), then through a filter before the ventilator. Just after the ventilator inflow tube, a vacuum was adjusted to maintain the gas mixture bag nearly empty and continuously drive fresh gas into the ventilator circuit. The expiratory gas from the ventilator was scavenged with a vacuum and set up to maintain a positive end expiratory pressure of 3-4 cm H2 O. NO was obtained from Air Products and Chemicals, Inc. (Allentown, Pa.) as a mixture of 1,034 ppm NO in pure nitrogen. A chemiluminescence NO/NOx analysis (Fontijin et al., Anal. Chem. 42:575-579, 1970) was performed before and after the soda lime filled tube, and just before the inspiratory valve of the ventilator (see FIG. 7) to assess the nitrogen dioxide concentration and adjust the flowmeters to provide the different levels of NO concentration.
ii. Dose-response study of intermittent NO inhalation during methacholine infusion. After baseline measurements, the same guinea pigs were given an intravenous infusion of a potent bronchoconstrictor, methacholine, at a rate of 2.5-7.5 μg/kg/min in order to reach a medium level of bronchoconstriction (3 to 4 fold the baseline lung resistance). After a stable period, each animal was ventilated with a series of gas mixtures of 5, 10, 25, 50, 100 and 300 ppm NO for 10 minutes at constant FIO2 (0.30-0.32). […]

[3] = regression vs NO concentration, eight lambs
[4] = NO-containing gas mixtures (FIGS. 9-12)

`[N]=O` [NO, nitric oxide] was tested, and the PA pressure ([1]; 5 ppm NO (0.89 μg/kg/min)) was “significantly reduced the PA pressure”, the vasodilator response ([1]; 40 or 80 ppm NO) was “almost complete vasodilator response” and the PAP ([1]; 80 ppm NO for one hour, four lambs) was “pulmonary vasodilation to a normal PAP”. For the same molecule, the “time to nearly maximal vasodilator effect” value ([1]; FIG. 3) was “within three minutes”, the “pulmonary hypertension after NO inhalation” value ([1]; after 80 ppm NO for one hour, four lambs) was “pulmonary hypertension recurring after NO inhalation” and the “onset of pulmonary vasodilation” value ([1]; after beginning NO inhalation) was “within seconds”. For the same molecule, the “return to prior level of vasoconstriction after ceasing NO” value ([1]; after ceasing to inhale NO) was “within three to six minutes”, the “pulmonary vasoconstriction and pulmonary hypertension” value ([1]; all dose levels of NO (5-80 ppm)) was “prompt reduction of the pulmonary vasoconstriction and pulmonary hypertension” and the CO [1, 3] was “no significant change”. For the same molecule, the SVR [1, 3] was “no significant change”, the “mean SAP” value [1, 3] was “no significant change” and the “vasodilator response of second exposure” value ([1]; second exposure to 5, 10 and 20 ppm NO) was “no significant reduction from the prior series of exposures”. The bronchodilation ([2]; 5 ppm NO) was “produced bronchodilation”, the airway resistance ([2]; 100 or 300 ppm NO) was “greater and more rapid reduction of airway resistance” and the “reversal of methacholine bronchoconstriction” value ([2]; 300 ppm NO) was “Complete reversal of methacholine bronchoconstriction”. The lung compliance [2, 4] was “increase of lung compliance”, the lung resistance [2, 4] was “consistent, rapid and profound reduction of lung resistance” and the onset of dilation ([2]; after inhalation) was “within a few seconds”. For the same molecule, the “reversal of methacholine bronchoconstriction” value ([2]; nitric oxide inhalation) was “reversed the profound bronchoconstriction”.
